Columns and labels:
Experiment in all cases: Kinase profiling in a biochemical assay panel (mobility shift assays and ELISA), %-inhibition at 1 μM; selectivity entropy
[1] = target: panel of more than 300 wild-type and mutant kinases (313 kinase panel) (Homo sapiens, UniProt P23443)
[2] = target: panel of more than 300 wild-type and mutant kinases (313 kinase panel) (Homo sapiens, UniProt P49760)
[3] = target: panel of more than 300 wild-type and mutant kinases (313 kinase panel) (Homo sapiens, UniProt P50750)
[4] = target: panel of more than 300 wild-type and mutant kinases (313 kinase panel) (Homo sapiens, UniProt P51812)
[5] = target: T1, panel of more than 300 wild-type and mutant kinases (313 kinase panel) (Homo sapiens, UniProt P54762)
T1 sequence (P54762 18-984): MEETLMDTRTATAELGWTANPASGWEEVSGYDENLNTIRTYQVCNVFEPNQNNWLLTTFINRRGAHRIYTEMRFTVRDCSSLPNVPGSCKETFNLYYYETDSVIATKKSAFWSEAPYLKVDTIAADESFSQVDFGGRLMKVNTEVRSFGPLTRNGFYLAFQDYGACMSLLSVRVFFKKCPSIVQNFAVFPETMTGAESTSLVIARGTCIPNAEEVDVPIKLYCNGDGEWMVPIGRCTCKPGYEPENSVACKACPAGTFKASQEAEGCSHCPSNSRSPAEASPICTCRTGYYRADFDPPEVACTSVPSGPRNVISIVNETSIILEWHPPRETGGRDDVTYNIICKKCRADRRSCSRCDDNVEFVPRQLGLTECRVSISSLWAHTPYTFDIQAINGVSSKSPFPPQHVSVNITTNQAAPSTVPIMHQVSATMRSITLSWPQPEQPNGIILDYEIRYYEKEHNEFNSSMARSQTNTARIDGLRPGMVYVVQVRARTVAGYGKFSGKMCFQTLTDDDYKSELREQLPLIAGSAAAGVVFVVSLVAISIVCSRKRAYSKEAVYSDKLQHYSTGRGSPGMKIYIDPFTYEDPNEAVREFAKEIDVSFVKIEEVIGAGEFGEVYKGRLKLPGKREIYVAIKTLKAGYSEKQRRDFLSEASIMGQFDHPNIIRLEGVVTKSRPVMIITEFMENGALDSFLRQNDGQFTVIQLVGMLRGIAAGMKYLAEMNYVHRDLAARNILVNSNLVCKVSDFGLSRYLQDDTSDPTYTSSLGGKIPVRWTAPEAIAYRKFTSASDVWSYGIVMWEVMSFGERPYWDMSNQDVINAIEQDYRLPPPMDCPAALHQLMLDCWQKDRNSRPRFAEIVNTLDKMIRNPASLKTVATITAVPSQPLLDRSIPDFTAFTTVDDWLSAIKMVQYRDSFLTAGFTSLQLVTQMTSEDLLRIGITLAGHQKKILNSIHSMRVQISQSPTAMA

[6] = target: panel of more than 300 wild-type and mutant kinases (313 kinase panel) (Homo sapiens, UniProt Q05397); conditions: kinase FAK; compound at 1 μM
[7] = target: T2, panel of more than 300 wild-type and mutant kinases (313 kinase panel) (Homo sapiens, UniProt Q13188)
T2 sequence (Q13188 1-491): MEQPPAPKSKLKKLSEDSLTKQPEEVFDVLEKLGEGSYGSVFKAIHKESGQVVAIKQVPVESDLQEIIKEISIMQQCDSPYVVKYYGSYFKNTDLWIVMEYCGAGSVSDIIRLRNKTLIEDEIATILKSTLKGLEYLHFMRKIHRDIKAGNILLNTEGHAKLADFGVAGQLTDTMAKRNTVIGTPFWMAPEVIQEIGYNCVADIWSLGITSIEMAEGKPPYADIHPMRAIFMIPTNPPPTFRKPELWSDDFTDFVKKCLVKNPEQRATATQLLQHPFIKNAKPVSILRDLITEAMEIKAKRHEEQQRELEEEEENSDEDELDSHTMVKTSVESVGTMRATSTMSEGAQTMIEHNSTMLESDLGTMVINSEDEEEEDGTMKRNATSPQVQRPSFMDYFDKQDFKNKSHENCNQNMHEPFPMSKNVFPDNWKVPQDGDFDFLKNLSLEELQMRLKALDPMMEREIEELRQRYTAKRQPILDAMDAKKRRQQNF

[8] = target: panel of more than 300 wild-type and mutant kinases (313 kinase panel) (Homo sapiens, UniProt Q96SB4)
[9] = target: panel of more than 300 wild-type and mutant kinases (313 kinase panel) (Homo sapiens, UniProt Q9Y3S1)
[10] = target: panel of more than 300 wild-type and mutant kinases (313 kinase panel) (Homo sapiens, UniProt P07949, M918T)
[11] = target: panel of more than 300 wild-type and mutant kinases (313 kinase panel) (Homo sapiens, UniProt P29376)
[12] = target: panel of more than 300 wild-type and mutant kinases (313 kinase panel) (Homo sapiens, UniProt Q96GD4)
[13] = kinase CDK9/CycT1, 1 μM compound

Sequence of panel of more than 300 wild-type and mutant kinases (313 kinase panel) (Homo sapiens, UniProt P07949, M918T) (P07949 29-1114 M918T): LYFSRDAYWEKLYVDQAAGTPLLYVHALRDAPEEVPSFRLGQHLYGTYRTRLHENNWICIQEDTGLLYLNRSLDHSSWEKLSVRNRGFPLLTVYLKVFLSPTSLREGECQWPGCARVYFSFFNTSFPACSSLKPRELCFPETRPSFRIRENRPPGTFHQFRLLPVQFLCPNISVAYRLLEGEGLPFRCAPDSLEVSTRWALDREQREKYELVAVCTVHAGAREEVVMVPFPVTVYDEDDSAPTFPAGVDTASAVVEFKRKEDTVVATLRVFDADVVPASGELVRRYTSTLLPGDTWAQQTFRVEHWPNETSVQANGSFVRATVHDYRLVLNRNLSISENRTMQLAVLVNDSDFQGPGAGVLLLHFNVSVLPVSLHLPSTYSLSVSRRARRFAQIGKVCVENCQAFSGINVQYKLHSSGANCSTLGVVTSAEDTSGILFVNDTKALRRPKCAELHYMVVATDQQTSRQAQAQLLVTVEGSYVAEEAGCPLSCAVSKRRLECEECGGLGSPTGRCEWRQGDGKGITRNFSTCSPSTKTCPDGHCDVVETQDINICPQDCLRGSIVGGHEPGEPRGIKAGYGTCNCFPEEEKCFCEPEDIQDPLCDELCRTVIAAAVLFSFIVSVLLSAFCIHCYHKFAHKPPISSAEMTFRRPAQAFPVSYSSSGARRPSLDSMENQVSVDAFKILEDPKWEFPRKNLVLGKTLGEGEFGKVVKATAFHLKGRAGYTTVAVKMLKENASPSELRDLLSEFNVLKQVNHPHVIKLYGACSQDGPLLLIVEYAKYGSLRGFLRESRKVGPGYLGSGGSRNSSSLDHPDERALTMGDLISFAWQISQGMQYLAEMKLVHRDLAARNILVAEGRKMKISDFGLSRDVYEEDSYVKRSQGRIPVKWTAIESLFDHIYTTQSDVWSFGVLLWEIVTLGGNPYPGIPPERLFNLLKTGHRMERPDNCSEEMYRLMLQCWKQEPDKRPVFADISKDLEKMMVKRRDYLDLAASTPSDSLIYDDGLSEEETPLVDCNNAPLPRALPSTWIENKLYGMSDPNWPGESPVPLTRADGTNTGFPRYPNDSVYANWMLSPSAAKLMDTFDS
Sequence of panel of more than 300 wild-type and mutant kinases (313 kinase panel) (Homo sapiens, UniProt Q96GD4) (Q96GD4 whole entry, change not shown): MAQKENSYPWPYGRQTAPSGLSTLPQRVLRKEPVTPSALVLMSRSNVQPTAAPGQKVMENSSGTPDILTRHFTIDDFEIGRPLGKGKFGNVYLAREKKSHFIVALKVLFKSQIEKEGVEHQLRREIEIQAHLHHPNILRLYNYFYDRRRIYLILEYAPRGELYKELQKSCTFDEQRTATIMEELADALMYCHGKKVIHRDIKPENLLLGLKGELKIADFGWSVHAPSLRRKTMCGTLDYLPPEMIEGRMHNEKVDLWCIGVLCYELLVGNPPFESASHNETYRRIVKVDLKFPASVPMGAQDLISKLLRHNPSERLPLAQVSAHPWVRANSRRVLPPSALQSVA
Sequence of panel of more than 300 wild-type and mutant kinases (313 kinase panel) (Homo sapiens, UniProt Q96SB4) (Q96SB4 whole entry, change not shown): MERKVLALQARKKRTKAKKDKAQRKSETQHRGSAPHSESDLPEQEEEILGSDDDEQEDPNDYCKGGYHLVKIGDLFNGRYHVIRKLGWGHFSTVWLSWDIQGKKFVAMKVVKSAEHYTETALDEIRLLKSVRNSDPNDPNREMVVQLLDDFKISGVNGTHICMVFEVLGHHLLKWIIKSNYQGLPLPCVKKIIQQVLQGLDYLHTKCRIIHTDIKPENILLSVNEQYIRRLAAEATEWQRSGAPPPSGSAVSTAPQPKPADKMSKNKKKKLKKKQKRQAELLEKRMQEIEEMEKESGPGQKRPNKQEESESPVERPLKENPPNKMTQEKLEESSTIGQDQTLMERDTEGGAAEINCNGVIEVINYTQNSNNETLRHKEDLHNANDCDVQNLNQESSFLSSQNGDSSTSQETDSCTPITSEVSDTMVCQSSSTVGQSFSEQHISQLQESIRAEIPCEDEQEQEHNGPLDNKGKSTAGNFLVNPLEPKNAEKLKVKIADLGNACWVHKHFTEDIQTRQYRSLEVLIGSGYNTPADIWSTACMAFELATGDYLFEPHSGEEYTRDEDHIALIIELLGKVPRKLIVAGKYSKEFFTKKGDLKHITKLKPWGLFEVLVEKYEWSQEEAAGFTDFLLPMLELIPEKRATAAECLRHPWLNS

| SMILES | %-inhibition of p70S6K ([1]; kinase p70S6K, 1 μM) [%] | %-inhibition, CLK2 ([2]; kinase CLK2, 1 μM compound) [%] | %-inhibition, CDK9/CycT1 [3, 13] [%] | %-inhibition of RSK2 ([4]; kinase RSK2, 1 μM) [%] | %-inhibition of EPHB1 ([5]; kinase EPHB1, compound at 1 μM) [%] | %-inhibition of FAK [6] [%] | %-inhibition of MST2 ([7]; kinase MST2, 1 μM) [%] | %-inhibition of SRPK1 ([8]; kinase SRPK1, 1 μM) [%] | %-inhibition of WNK2 ([9]; kinase WNK2, compound at 1 μM) [%] | %-inhibition of RET(M918T) ([10]; kinase RET(M918T), 1 μM) [%] | %-inhibition of LTK ([11]; kinase LTK, compound at 1 μM) [%] | %-inhibition, AurB ([12]; kinase AurB, 1 μM compound) [%] | further results |
| --- | --- | --- | --- | --- | --- | --- | --- | --- | --- | --- | --- | --- | --- |
| C[C@@H](Oc1cc(-c2cnn(C3CCNCC3)c2)cnc1N)c1c(Cl)ccc(F)c1Cl [crizotinib] | 40 | -6 | 5 | 0.217 | 93 | 90 | 13 | 4.55 | -4 | – | – | – | – |
| CC(C)(C)c1nc(-c2cccc(NS(=O)(=O)c3c(F)cccc3F)c2F)c(-c2ccnc(N)n2)s1 [dabrafenib] | – | 0.875 | – | – | 12 | 13 | – | – | 0.686 | 37 | 2.67 | 39 | – |
| COc1cc2c(Nc3ccc(Br)cc3F)ncnc2cc1OCC1CCN(C)CC1 [vandetanib] | – | -18 | – | 5.7 | 96 | -2.11 | -4 | 3 | -4.29 | – | – | 23 | – |
| O=S(=O)(c1cccc2cnccc12)N1CCCNCC1 [fasudil] | 38 | -0.292 | 26 | – | -7 | -4 | 1.77 | -5.38 | 1.45 | – | -3.76 | 1 | – |
| C#Cc1cccc(Nc2ncnc3cc(OCCOC)c(OCCOC)cc23)c1 [erlotinib] | – | – | – | – | – | – | – | – | – | – | – | – | %-inhibition of RET(M918T) ([10]; 1 µM): 67%; %-inhibition of p70S6K ([1]; 1 µM): 10%; %-inhibition of LTK ([11]; 1 µM): 41%; %-inhibition, CLK2 ([2]; 1 µM): 8%; %-inhibition, CDK9/CycT1 ([3]; 1 µM): 2.63%; %-inhibition of RSK2 ([4]; 1 µM): 6.4%; %-inhibition of EPHB1 ([5]; 1 µM): 22%; %-inhibition of MST2 ([7]; 1 µM): 7%; %-inhibition, AurB ([12]; 1 µM): 25%; %-inhibition of SRPK1 ([8]; 1 µM): -1.67%; %-inhibition of WNK2 ([9]; 1 µM): -7% |
| COc1cc2nccc(Oc3ccc(NC(=O)C4(C(=O)Nc5ccc(F)cc5)CC4)cc3)c2cc1OC [cabozantinib] | 8 | -5.26 | -5.37 | -3.61 | 95 | 10 | -0.31 | 37 | 6.43 | – | 61 | 89 | – |
| Cc1ccc(C(=O)Nc2ccc(CN3CCN(C)CC3)c(C(F)(F)F)c2)cc1C#Cc1cnc2cccnn12 [ponatinib] | 101 | -3.36 | 16 | 30 | – | – | – | – | 13 | 101 | 85 | 46 | – |
| CCCS(=O)(=O)Nc1ccc(F)c(C(=O)c2c[nH]c3ncc(-c4ccc(Cl)cc4)cc23)c1F [vemurafenib] | 9 | -13 | 1.33 | -2.31 | -1.63 | -3.55 | 24 | 2 | 13 | 11 | 2.6 | 6 | – |
| CCN(CC)CCNC(=O)c1c(C)[nH]c(/C=C2\C(=O)Nc3ccc(F)cc32)c1C [sunitinib] | 88 | 97 | – | – | – | – | – | 5 | – | – | 81 | – | – |
| Cc1cn(-c2cc(NC(=O)c3ccc(C)c(Nc4nccc(-c5cccnc5)n4)c3)cc(C(F)(F)F)c2)cn1 [nilotinib] | 2 | 1.71 | 9 | 13 | 72 | 3.25 | -8 | 3 | -8 | – | 7.51 | -11 | %-inhibition of RET(M918T) ([10]; 1 µM): 0.118% |
| Cc1nc(Nc2ncc(C(=O)Nc3c(C)cccc3Cl)s2)cc(N2CCN(CCO)CC2)n1 [dasatinib] | 11 | – | -0.25 | – | – | – | – | -2.17 | 20 | – | – | – | – |
| N#CC[C@H](C1CCCC1)n1cc(-c2ncnc3[nH]ccc23)cn1 [ruxolitinib] | – | 15 | -3.29 | 9 | – | -1 | 3 | 2.4 | -4.57 | – | 97 | 24 | %-inhibition of p70S6K ([1]; 1 µM): 20%; %-inhibition of EPHB1 ([5]; 1 µM): 31% |
| COc1cc(Nc2c(C#N)cnc3cc(OCCCN4CCN(C)CC4)c(OC)cc23)c(Cl)cc1Cl [bosutinib] | 43 | -0.431 | -4.22 | – | – | 22 | – | – | 4 | 93 | 59 | – | %-inhibition of RSK2 ([4]; 1 µM): 41% |
